In US9145436B2 (priority 2010, dated 2015):
Read-outs that look alike come from different tables or passages of the source.

Key:
[1] = tested on: IL-10 production in J774 cells; experiment: Cytokine production in stimulated J774 cells, IL-10 (ELISA); format: cell-based; settings: Normal (LPS 0.1 μg/mL)
Procedure: (§1) Various analogs were compared in vitro to determine key properties. Antibacterial effect was determined in representative Gram negative (E. coli) and positive (S. aureus) organisms using the method of example 16. Effects on lung inflammation were compared using the method of example 32. BALF (Bronchoalveolar Lavage Fluid) TNFa levels are determined by ELISA. In vitro toxicity is determined by growth inhibition of Jurkat lymphocytes in DMEM medium as determined using Alamar Blue reaction. Effects on cytokine production are determined in J774 cells stimulated with either LPS (0.1 μg/mL) or medium from J774 cells stimulated for 24 h with 0.2 μg/mL LPS. Cytokines are determined by ELISA and expressed as % DMSO control at 50 μM inhibitor concentration.

BALF TNFa = experiment: Airway inflammation by inhaled LPS, BALF TNFa by ELISA; format: in vivo, DBA or Swiss female mice; settings: 30 minutes prior to LPS challenge
Procedure: as §1
Airway inflammation is induced by inhalation of solutions containing bacterial LPS. 10 μg per mouse is provided intranasally in phosphate buffered saline. 90 minutes after challenge, bronchioalveolar lavage fluid is recovered from the lung using PBS (0.5 mL) injected into the lung via the trachea and frozen prior to analysis for cytokines by ELISA. TNFa is the primary cytokine measured. Compound 2 and other test substances are dissolved in 0.02% citric acid in water, and the pH of the resulting solution is set to 6.2. Compounds are administered 30 minutes prior to challenge either as 25 μL solutions for intranasal use, or as 125 μL volumes for p.o. application in 25 g DBA or Swiss female mice. The results of said interventions include reduction of lung and/or plasma cytokines. Example data are recorded in FIG. 13.

[2] = tested on: GM_CSF production in J774 cells; experiment: Cytokine production in stimulated J774 cells, GM-CSF (ELISA); format: cell-based; settings: Cond. (medium from J774 cells stimulated 24 h with 0.2 μg/mL LPS)
Procedure: as §1

E. coli = experiment: Antibiotic dilution assay, E. coli; format: cell-based; settings: liquid medium, OD600, read-out: Bacterial IC 50 (μM) E. Coli
Procedure: (§2) The antibiotic activity of the compounds was determined via antibiotic dilution assay. After filling 100 μl growth medium into all the wells of a 96 well plate, the compounds were diluted from 1 mM to 0.010 μM. The growth control wells contained growth medium instead of inhibitory agents. The inhibitory control contained Compound 3 (200 μM). Suspensions of E. coli and B. pumilus in growth medium with an approximate OD600 of 0.03-0.04 were added to the diluted compounds, incubated for 6-8 hours on the shaker at 750 rpm and 37° C. until the growth control had reached an OD600 of about 0.6-0.8. The OD600 was then determined on a standard plate reader.
as §1

[3] = tested on: TNFa production in J774 cells; experiment: Cytokine production in stimulated J774 cells, TNFa (ELISA); format: cell-based; settings: Normal (LPS 0.1 μg/mL)
Procedure: as §1

HeLa = experiment: Cytotoxicity of the substances (TC50), HeLa; format: cell-based; settings: HeLa cells
[4] = tested on: IL-12 production in J774 cells; experiment: Cytokine production in stimulated J774 cells, IL-12 (ELISA); format: cell-based; settings: Normal (LPS 0.1 μg/mL)
Procedure: as §1

Jurkat lymphocytes = experiment: In vitro toxicity: growth inhibition of Jurkat lymphocytes, Alamar Blue; format: cell-based; settings: DMEM medium
Procedure: as §1

S. aureus = experiment: Antibiotic dilution assay, S. aureus; format: cell-based; settings: liquid medium, OD600, read-out: Bacterial IC 50 (μM) S. Aureus
Procedure: as §2, §1

Jurkat = experiment: Cytotoxicity of the substances (TC50), Jurkat; format: cell-based; settings: Jurkat cells
bacteria = settings: relative to azithromycin; cited from earlier work

Row | Structure (SMILES) | Cytokine production in J774 cells as % DMSO control, IL-10 Normal 50 μM [1] [% DMSO control] | BALF TNFa (% Vehicle) 20 μmol/kg i.n. (BALF TNFa) [% Vehicle] | Cytokine production in J774 cells as % DMSO control, GM_CSF Cond. 50 μM [2] [% DMSO control] | IC50 (E. coli; Escherichia coli) [µM] | Cytokine production in J774 cells as % DMSO control, TNFa Normal 50 μM [3] [% DMSO control] | TC50 HeLa (HeLa) [µM] | Cytokine production in J774 cells as % DMSO control, IL-12 Normal 50 μM [4] [% DMSO control] | Jurkat Cell toxicity Normal growth limit (Jurkat lymphocytes) [µM] | IC50 (S. aureus; Staphylococcus aureus) [µM] | TC50 Jurkat (Jurkat) [µM] | BALF TNFa (% Vehicle) 200 μmol/kg p.o. (BALF TNFa) [% Vehicle] | IC50 (E. coli) [µM] | IC50 (S. aureus) [µM] | antibacterial effectiveness, fold less effective than the cladinosylated molecule (bacteria)
1 | CC[C@H]1OC(=O)[C@H](C)[C@@H](O[C@H]2C[C@@](C)(OC)[C@@H](O)[C@H](C)O2)[C@H](C)[C@@H](O[C@@H]2O[C@H](C)C[C@H](N(C)C)[C@H]2O)[C@](C)(O)C[C@@H](C)CN(C)[C@H](C)[C@@H](O)[C@]1(C)O [Compound 3, 9a-aza-9a-methyl-9-deoxo-9a-homoerythromycin A, reference compound] | 122 | 75 | 118 | 5.5 | 96 | > 100 | 60 | 100 | 2.25 | > 100 | – | – | – | –
2 | CCC1OC(=O)C(C)C2(O)OC(C)(CC(C)CN(C)C(C)C(=O)C1(C)O)C(OC1OC(C)CC(N(C)C)C1O)C2C (stereo not drawn) [Compound 4, 14-(4-Dimethylamino-3-hydroxy-6-methyl-tetrahydro-pyran-2-yloxy)-5-ethyl-1,6-dihydroxy-2,6,8,9,11,13,15-heptamethyl-4,16-dioxa-9-aza-bicyclo[11.2.1]hexadecane-3,7-dione] | – | – | – | – | – | > 100 | – | – | – | > 100 | – | – | – | –
3 | CCOC(=O)CC1(C)C(=O)O[C@H](CC)[C@@](C)(O)[C@H](O)[C@@H](C)N(C)C[C@H](C)C[C@]2(C)O[C@@]1(O)[C@H](C)[C@H]2O[C@@H]1O[C@H](C)CC(N(C)C)[C@H]1O (stereo partly drawn) [Compound 5, [14-(4-Dimethylamino-3-hydroxy-6-methyl-tetrahydro-pyran-2-yloxy)-5-ethyl-1,6,7-trihydroxy-2,6,8,9,11,13,15-heptamethyl-3-oxo-4,16-dioxa-9-aza-bicyclo[11.2.1]hexadec-2-yl]-acetic acid ethyl ester] | 95 | 90 | 114 | 980 | 39 | – | 7 | 100 | 2600 | > 100 | – | – | – | –
4 | CC[C@H]1OC(=O)[C@H](C)C(O)[C@H](C)[C@@H](O[C@@H]2O[C@H](C)CC([N+](C)(C)[O-])[C@H]2O)[C@](C)(O)C[C@@H](C)C[N+](C)([O-])[C@H](C)[C@@H](O)[C@]1(C)O (stereo partly drawn) [Compound 5b] | 116 | 56 | 81 | 1090 | 88 | – | 67 | 100 | 1920 | – | – | – | – | –
5 | CC[C@H]1OC(=O)[C@H](C)C(=O)[C@H](C)[C@@H](O[C@@H]2O[C@H](C)CC(N(C)C)[C@H]2OC(C)=O)[C@](C)(O)C[C@@H](C)CN(C)[C@H](C)[C@@H](O)[C@]1(C)O (stereo partly drawn) [Compound 8] | 134 | 81 | 83 | 1270 | 85 | – | 45 | 100 | 1970 | – | 67 | – | – | –
6 | CCCCCCCCC=CCCCCCCCC(=O)OC1C(OC2C(C)C(=O)C(C)C(=O)OC(CC)C(C)(O)C(OC(=O)CCCCCCCC=CCCCCCCCC)C(C)N(C)CC(C)CC2(C)O)OC(C)CC1N(C)C (stereo not drawn) [Compound 9b] | 123 | 112 | 53 | – | 89 | – | 76 | 100 | – | – | – | 1950 | 2500 | –
7 | CCC1OC(=O)C(C)C(=O)C(C)C(OC2OC(C)CC(NC)C2O)C(C)(O)CC(C)CN(C)C(C)C(O)C1(C)O (stereo not drawn) [Compound 11] | 96 | 80 | 174 | – | 86 | – | 53 | 100 | – | – | 98 | 1090 | 2340 | –
8 | CC[C@H]1OC(=O)[C@H](C)C(O)[C@H](C)[C@@H](O[C@@H]2O[C@H](C)C[C@H](N(C)C)[C@H]2O)/C(C)=C/[C@@H](C)CN(C)[C@H](C)[C@@H](O)[C@]1(C)O (stereo partly drawn) [Compound 13] | 98 | 78 | 193 | – | 99 | – | 47 | 100 | – | – | – | 2140 | 1570 | –
9 | CC[C@H]1OC(=O)[C@H](C)[C@@]2(O)O[C@@](C)(C[C@@H](C)CN[C@H](C)[C@@H](O)[C@]1(C)O)[C@H](O[C@@H]1O[C@H](C)C[C@H](NC)[C@H]1O)[C@H]2C [Compound 14] | 95 | 62 | 153 | 1320 | 93 | – | 143 | 100 | 1950 | – | 95 | – | – | –
10 | CC[C@H]1OC(=O)[C@H](C)C(=O)[C@H](C)[C@@H](O[C@@H]2O[C@H](C)CC(N(C)C)[C@H]2O)[C@](C)(O)C[C@@H](C)CN(C)[C@H](C)[C@H]2OC(=O)O[C@@]21C (stereo partly drawn) [Example 10] | 118 | 99 | 14 | 1350 | 72 | – | 40 | 100 | 1600 | – | – | – | – | –
11 | CC[C@H]1OC(=O)[C@H](C)[C@@H](O)[C@H](C)[C@@H](O[C@@H]2O[C@H](C)C[C@H](N(C)C)[C@H]2O)[C@](C)(O)C[C@@H](C)CN(C)[C@H](C)[C@@H](O)[C@]1(C)O [decladinosyl azithromycin] | – | – | – | – | – | – | – | – | – | – | – | – | – | ca. 5 fold
